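All cell lines were grown in 96-well plates and treated with compound for 48 hours. Here, GI50 denotes the concentration required for 50% inhibition of growth. TGI marks complete inhibition of growth.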 A value given as a limit tells only on which side of the number the result lay.

Broadly, the TGI is the concentration giving total growth inhibition. Low values mean more potent growth arrest, high ones less potent growth arrest. What is called GI50 is the concentration that inhibits growth by half.

Among the test systems are T-47D breast; HS 578T breast; K-562 leukemia; MDA-MB-435; NCI-H460 lung; CCRF-CEM leukemia; U251 CNS; SF-539 CNS; SR leukemia; HOP-62 NSCLC.
Holding throughout (assay): DTP human tumour cell line panel, 48 h

Turning to `O=[N+]([O-])c1cc(Br)cc2cc(Cl)cnc12`, the TGI with T-47D breast, in the test on HS 578T breast, with K-562 leukemia, with MDA-MB-435, in the test with NCI-H460 lung and in the test with CCRF-CEM leukemia was above 100 µM in each case. Further, the concentration for total growth inhibition (TGI) in the test with U251 CNS, with SF-539 CNS, in the test on SR leukemia and in the test on HOP-62 NSCLC was above 100 µM throughout.

As to `Cc1cc(C)cc(Nc2nnc3n2S(=O)(=O)c2cc(C)c(Cl)cc2S3)c1`, the TGI in the test on T-47D breast is above 100 µM; in the test with HS 578T breast, 26.9 µM; with K-562 leukemia, above 100 µM; with MDA-MB-435, 91.2 µM; with NCI-H460 lung it was 24.8 µM; with CCRF-CEM leukemia it was above 100 µM. The TGI in the test with U251 CNS turned out to be 22.9 µM; in the test with SF-539 CNS it was 13.7 µM; in the test on SR leukemia it was 13.9 µM; in the test with HOP-62 NSCLC, 41.6 µM.

`Cc1cccc2c(N)c3cccc(C(=O)NCC[N+](C)(C)Cc4ccc([N+](=O)[O-])n4C)c3nc12`: the TGI in the test with T-47D breast was above 85.9 µM; in the test with HS 578T breast it was 41 µM; with K-562 leukemia, above 31.6 µM; in the test with MDA-MB-435 it was above 85.2 µM; in the test with NCI-H460 lung, above 46.6 µM; with CCRF-CEM leukemia, 41.8 µM. The TGI with U251 CNS worked out at 63.4 µM; in the test with SF-539 CNS, 52.5 µM; in the test with SR leukemia, 36.6 µM; with HOP-62 NSCLC, 61.7 µM.

`O=C(O)c1cc(N=Nc2ccc([N+](=O)[O-])cc2)ccc1O`: the TGI in the test on T-47D breast is above 100 µM; with HS 578T breast it was above 100 µM; with K-562 leukemia, above 100 µM; in the test on MDA-MB-435, above 100 µM; in the test with NCI-H460 lung, 83 µM; with CCRF-CEM leukemia, above 100 µM. The TGI in the test on U251 CNS is 68.4 µM; in the test with SF-539 CNS, above 100 µM; in the test with SR leukemia, above 100 µM; with HOP-62 NSCLC, above 100 µM.

Take `O=Cc1c2c(cc3c1CC1(C3)Cc3cc4c(c(C=O)c3C1)CCCC4)CCCC2`: the concentration for total growth inhibition (TGI) was above 31.6 µM in the test with T-47D breast; above 31.6 µM with HS 578T breast; 54.1 µM with K-562 leukemia; above 31.6 µM with MDA-MB-435; above 100 µM in the test with NCI-H460 lung; 30.2 µM in the test with CCRF-CEM leukemia. For the same compound, the TGI was above 31.6 µM in the test on U251 CNS, above 31.6 µM with SF-539 CNS, 22.2 µM in the test on SR leukemia and above 31.6 µM in the test on HOP-62 NSCLC.

`N/C(=N\N=C\c1cc2ccccc2s1)c1cnccn1`: the TGI in the test with T-47D breast, in the test on HS 578T breast, in the test with K-562 leukemia, with MDA-MB-435, in the test with NCI-H460 lung and in the test with CCRF-CEM leukemia was above 100 µM each time. Further, the concentration for total growth inhibition (TGI) in the test on U251 CNS, in the test on SF-539 CNS, with SR leukemia and with HOP-62 NSCLC was above 100 µM throughout.

With `Clc1ccc(Nc2ncco2)cc1Cl`, the TGI in the test with T-47D breast, in the test on HS 578T breast, with K-562 leukemia, in the test on MDA-MB-435, in the test on NCI-H460 lung and in the test with CCRF-CEM leukemia was above 10 µM each time. Moreover, the TGI in the test on U251 CNS, in the test on SF-539 CNS, with SR leukemia and in the test on HOP-62 NSCLC was above 10 µM each time.

On to `C1=N[C@]23C(=N[C@H](N=C2NCc2ccco2)[C@]24N=CNC2=N[C@H]3N=C4NCc2ccco2)N1`, for which the GI50 was above 100 µM in the test with T-47D breast; 39.1 µM in the test on HS 578T breast; above 100 µM in the test with K-562 leukemia; above 100 µM with MDA-MB-435; above 100 µM with NCI-H460 lung; above 100 µM in the test on CCRF-CEM leukemia. In addition, the GI50 in the test on U251 CNS, with SF-539 CNS, with SR leukemia and with HOP-62 NSCLC was above 100 µM throughout. Further, the concentration for total growth inhibition (TGI) in the test on T-47D breast, in the test on HS 578T breast, with K-562 leukemia, in the test on MDA-MB-435, in the test with NCI-H460 lung and in the test with CCRF-CEM leukemia was above 100 µM in each case. Also, the total growth inhibition concentration (TGI) in the test on U251 CNS, in the test with SF-539 CNS, in the test on SR leukemia and with HOP-62 NSCLC was above 100 µM throughout.

For the compound `COc1ccccc1C1C2=C(COC2=O)Oc2cc3c(cc21)OCO3` (stereo not given), the TGI with T-47D breast was above 100 µM; with HS 578T breast, 13.3 µM; in the test with K-562 leukemia it was above 100 µM; in the test with MDA-MB-435 it was 0.947 µM; with NCI-H460 lung it was above 100 µM; with CCRF-CEM leukemia, 16.8 µM. Besides, the TGI with U251 CNS was above 100 µM; with SF-539 CNS it was 5.32 µM; in the test on SR leukemia, above 100 µM; with HOP-62 NSCLC, above 100 µM.

For `Cn1c(N/N=C/c2ccccc2)nc(-c2ccc3c(c2)OCO3)c(C#N)c1=O`, the TGI in the test on T-47D breast, in the test on HS 578T breast, with K-562 leukemia, in the test with MDA-MB-435, in the test with NCI-H460 lung and in the test on CCRF-CEM leukemia was above 100 µM each time. The total growth inhibition concentration (TGI) in the test with U251 CNS, with SF-539 CNS, in the test on SR leukemia and in the test on HOP-62 NSCLC was above 100 µM each time.

`Oc1cc(O)c2c(c1)O[C@H](c1ccc(O)c(O)c1)[C@@H](O)C2`: the concentration for total growth inhibition (TGI) in the test with T-47D breast, in the test on HS 578T breast, in the test with K-562 leukemia, in the test on MDA-MB-435, in the test with NCI-H460 lung and with CCRF-CEM leukemia was above 100 µM throughout. Besides, the TGI in the test with U251 CNS, with SF-539 CNS, in the test with SR leukemia and in the test with HOP-62 NSCLC was above 100 µM in each case.

Turning to `COc1ccc(C=Nc2ccc(-c3nc4ccccc4s3)cc2)cc1OC`, the concentration for total growth inhibition (TGI) was 81.2 µM in the test on T-47D breast; above 100 µM with HS 578T breast; above 100 µM in the test with K-562 leukemia; above 100 µM in the test on MDA-MB-435; 67.6 µM in the test with NCI-H460 lung; 55 µM with CCRF-CEM leukemia. Also, the TGI is above 100 µM in the test with U251 CNS, above 100 µM in the test on SF-539 CNS, above 100 µM in the test on SR leukemia and 39.2 µM in the test with HOP-62 NSCLC.

Take `CN1C(=O)c2ccccc2C(O)(c2ccccc2)C1(O)c1ccccc1` (stereo not given): the TGI in the test on T-47D breast, in the test on HS 578T breast, in the test with K-562 leukemia, in the test with MDA-MB-435, with NCI-H460 lung and in the test with CCRF-CEM leukemia was above 100 µM in each case. For the same compound, the concentration for total growth inhibition (TGI) with U251 CNS, in the test with SF-539 CNS, in the test with SR leukemia and in the test with HOP-62 NSCLC was above 100 µM each time.

`COc1ccccc1-n1cnc2c1NC(C)(C)N=C2C(N)=O`: the concentration for total growth inhibition (TGI) in the test on T-47D breast, in the test with HS 578T breast, with K-562 leukemia, in the test with MDA-MB-435, with NCI-H460 lung and in the test with CCRF-CEM leukemia was above 100 µM each time. Besides, the total growth inhibition concentration (TGI) in the test with U251 CNS, in the test on SF-539 CNS, in the test on SR leukemia and in the test with HOP-62 NSCLC was above 100 µM in each case.

For `Cc1cc(OCc2nc(N)nc(N)c2-c2ccc(Cl)c(Cl)c2)ccc1[N+](=O)[O-]`, the TGI with T-47D breast is above 51.5 µM; in the test on HS 578T breast, above 88.2 µM; with K-562 leukemia, above 100 µM; in the test with MDA-MB-435, 21.5 µM; with NCI-H460 lung it was 4.88 µM; in the test with CCRF-CEM leukemia, 2.27 µM. The total growth inhibition concentration (TGI) with U251 CNS is 12.3 µM; in the test on SF-539 CNS it was 22.5 µM; in the test on SR leukemia, 0.106 µM; in the test with HOP-62 NSCLC, 12 µM.

Take `O=C1CC(c2ccc(Cl)cc2)C2(C(=O)NC(=S)NC2=O)C(c2ccc(Cl)cc2)C1` (stereo not given): the TGI in the test on T-47D breast is 74.1 µM; with HS 578T breast, 99.4 µM; in the test with K-562 leukemia, 74.1 µM; in the test with MDA-MB-435, 39.9 µM; with NCI-H460 lung, 30.5 µM; in the test with CCRF-CEM leukemia, 75.4 µM. The TGI with U251 CNS is 79.7 µM; in the test with SF-539 CNS, 40.9 µM; in the test on SR leukemia, above 100 µM; in the test on HOP-62 NSCLC it was 54.7 µM.

In the case of `C=C1C(=O)OC2C1CCC(=C)C1CC(O)C(=C)C12` (stereo not given), the total growth inhibition concentration (TGI) in the test with T-47D breast was 42.8 µM; in the test on HS 578T breast it was above 100 µM; in the test on K-562 leukemia, 21.4 µM; with MDA-MB-435, 58.8 µM; in the test on NCI-H460 lung, 36.6 µM; in the test with CCRF-CEM leukemia, 7.44 µM. Besides, the TGI was determined as 50.3 µM in the test with U251 CNS, 35.2 µM in the test with SF-539 CNS, 10.8 µM in the test with SR leukemia and 49.8 µM in the test with HOP-62 NSCLC.

As to `OC1(c2ccccc2)CC2CCC(C1)N2CCCC(O)(c1ccccc1)c1ccccc1` (stereo not given), the TGI in the test with T-47D breast came to 50.3 µM; with HS 578T breast, 18.7 µM; in the test with K-562 leukemia, 37.8 µM; with MDA-MB-435, 24.8 µM; in the test on NCI-H460 lung, 5.13 µM; with CCRF-CEM leukemia it was 30.8 µM. Besides, the total growth inhibition concentration (TGI) with U251 CNS was 28.7 µM; in the test with SF-539 CNS it was 16.8 µM; in the test with SR leukemia it was above 100 µM; in the test on HOP-62 NSCLC it was 29 µM.

As to `CC(=O)N1C(C(=O)NN2CCOCC2)CSC1c1ccccc1` (stereo not given), the concentration for total growth inhibition (TGI) in the test with T-47D breast, with HS 578T breast, in the test on K-562 leukemia, in the test with MDA-MB-435, in the test on NCI-H460 lung and in the test on CCRF-CEM leukemia was above 100 µM throughout. In addition, the concentration for total growth inhibition (TGI) in the test on U251 CNS, in the test on SF-539 CNS, in the test with SR leukemia and in the test on HOP-62 NSCLC was above 100 µM in each case.

The values are drawn from PubChem BioAssay (NCI).
